These results are taken from patent US7544707B2, “Bicyclic derivatives as PPAR modulators” (Eli Lilly and Company, priority 2003, dated 2009).

Molecules are shown by their SMILES.

For orientation: melting point means the temperature of the solid-liquid transition. The compound `Cc1cc(OC(C)c2ccc3nn(-c4ccc(C(F)(F)F)cc4)cc3c2)ccc1OC(C)(C)C(=O)O` (racemic) [Example 66, (+/−)-2-Methyl-2-(2-methyl-4-{1-[2-(4-trifluoromethylphenyl)-2H-indazol-5-yl]ethoxy}phenoxy)propionic Acid] showed a melting point of 129 to 131 °C. The value for `Cc1cc(SC(C)c2cccc3cn(-c4ccc(C(F)(F)F)cc4)nc23)ccc1OC(C)(C)C(=O)O` (racemic) [Example 41, (+/−)-2-Methyl-2-(2-methyl-4-{1-[2-(4-trifluoromethylphenyl)-2H-indazol-7-yl]ethylsulfanyl}phenoxy)propionic Acid] was 140 to 142 °C; that for `CC(C)(Oc1ccc(OCc2cccc3c2cnn3-c2ccc(C(F)(F)F)cc2)cc1)C(=O)O` [Example 81, 2-Methyl-2-{4-[1-(4-trifluoromethylphenyl)-1H-indazol-4-ylmethoxy]phenoxy}propionic Acid] was 128 to 130 °C; that for `CC(Sc1ccc(OC(C)(C)C(=O)O)cc1)c1ccc2cn(-c3ccc(C(F)(F)F)cc3)nc2c1` (racemic) [Example 59, (+/−)-2-Methyl-2-(4-{1-[2-(4-trifluoromethylphenyl)-2H-indazol-6-yl]ethylsulfanyl}phenoxy)propionic Acid] was 130 to 132 °C.

`Cc1cc(OC(CCC(F)(F)F)c2cccc3c2cnn3-c2ccc(C(F)(F)F)cc2)ccc1OC(C)(C)C(=O)O` (racemic) [Example 87, (+/−)-2-Methyl-2-(2-methyl-4-{4,4,4-trifluoro-1-[1-(4-trifluoromethylphenyl)-1H-indazol-4-yl]butoxy}phenoxy)propionic Acid] displayed a melting point of 218 to 222 °C. `CCc1cc(OCc2ccc3cn(-c4ccc(C(F)(F)F)cc4)nc3c2)ccc1CCC(=O)O` [Example 22, 3-{2-Ethyl-4-[2-(4-trifluoromethylphenyl)-2H-indazol-6-ylmethoxy]phenyl}propionic Acid] displayed a melting point of 190 to 192 °C.

On to `Cc1cc(OC(C)c2ccc3cn(-c4ccc(C(F)(F)F)cc4)nc3c2)ccc1OC(C)(C)C(=O)O` (racemic) [Example 57, (+/−)-2-Methyl-2-(2-methyl-4-{1-[2-(4-trifluoromethylphenyl)-2H-indazol-6-yl]ethoxy}phenoxy)propionic Acid], for which the melting point was in the range of 156 to 158 °C. `CC(C)(Oc1ccc(SCc2cccc3cnn(-c4ccc(C(F)(F)F)cc4)c23)cc1)C(=O)O` [Example 99, 2-Methyl-2-{4-[1-(4-trifluoromethylphenyl)-1H-indazol-7-ylmethylsulfanyl]phenoxy}propionic Acid] displayed a melting point of 125 to 128 °C.

With `Cc1cc(OC(C)c2cccc3cn(-c4ccc(C(F)(F)F)cc4)nc23)ccc1OC(C)(C)C(=O)O` (racemic) [Example 40, (+/−)-2-Methyl-2-(2-methyl-4-{1-[2-(4-trifluoromethylphenyl)-2H-indazol-7-yl]ethoxy}phenoxy)propionic Acid], the melting point lay within 139 to 141 °C. Regarding `CCc1cc(SC(C)c2cccc3cn(-c4ccc(C(F)(F)F)cc4)nc23)ccc1OCC(=O)O` (racemic) [Example 10, (+/−)-2-Ethyl-4-{1-[2-(4-trifluoromethylphenyl)-2H-indazol-7-yl]ethylsulfanyl}phenoxyacetic Acid], the melting point lay in the range of 65 to 67 °C. Compound `Cc1cc(SCc2cccc3nn(-c4ccc(C(F)(F)F)cc4)cc23)ccc1OC(C)(C)C(=O)O` [Example 71, 2-Methyl-2-{2-methyl-4-[2-(4-trifluoromethylphenyl)-2H-indazol-4-ylmethylsulfanyl]phenoxy}propionic Acid] had a melting point of 125 to 127 °C. `Cc1cc(SCc2cccc3cnn(-c4ccc(C(F)(F)F)cc4)c23)ccc1CCC(=O)O` [Example 33, 3-{2-Methyl-4-[1-(4-trifluoromethylphenyl)-1H-indazol-7-ylmethylsulfanyl]phenyl}propionic Acid] registered a melting point of 120 to 123 °C. In the case of `Cc1cc(SCc2ccc3cn(-c4ccc(C(F)(F)F)cc4)nc3c2)ccc1CCC(=O)O` [Example 20, 3-{2-Methyl-4-[2-(4-trifluoromethylphenyl)-2H-indazol-6-ylmethylsulfanyl]phenyl}propionic Acid], the melting point lay within 130 to 132 °C.

Turning to `Cc1cc(SCCc2cccc3cn(-c4ccc(C(F)(F)F)cc4)nc23)ccc1OCC(=O)O` [Example 46, (2-Methyl-4-{2-[2-(4-trifluoromethylphenyl)-2H-indazol-7-yl]ethylsulfanyl}phenoxy)acetic Acid], the melting point fell in the range of 137 to 139 °C.

`CC(C)(Sc1ccc(OCc2ccc3nn(-c4ccc(C(F)(F)F)cc4)cc3c2)cc1)C(=O)O` [Example 62, 2-Methyl-2-{4-[2-(4-trifluoromethylphenyl)-2H-indazol-5-ylmethoxy]phenylsulfanyl}propionic Acid] displayed a melting point of 192 to 194 °C. Compound `CC(C)(Oc1ccc(OCCc2cccc3cn(-c4ccc(C(F)(F)F)cc4)nc23)cc1)C(=O)O` [Example 47, 2-Methyl-2-(4-{2-[2-(4-trifluoromethylphenyl)-2H-indazol-7-yl]ethoxy}phenoxy)propionic Acid] yielded a melting point of 122 to 124 °C. As for `O=C(O)Cc1csc2cc(OCc3ccc4cn(-c5ccc(C(F)(F)F)cc5)nc4c3)ccc12` [Example 25, {6-[2-(4-Trifluoromethylphenyl)-2H-indazol-6-ylmethoxy]benzo[b]thiophen-3-yl}acetic Acid], the melting point fell in the range of 240 to 242 °C. As to `Cc1cc(OC(C)c2cccc3cn(-c4ccc(C(F)(F)F)cc4)nc23)ccc1CCC(=O)O` (racemic) [Example 12, (+/−)-3-(2-Methyl-4{1-[2-(4-trifluoromethylphenyl)-2H-indazol-7yl]ethoxy}phenyl)propionic Acid], the melting point lay in the range of 66 to 68 °C. Take `CC(C)(Sc1ccc(OCc2cccc3cn(-c4ccc(C(F)(F)F)cc4)nc23)cc1)C(=O)O` [Example 38, 2-Methyl-2-{4-[2-(4-trifluoromethylphenyl)-2H-indazol-7-ylmethoxy]phenylsulfanyl}propionic Acid]: the melting point lay within 175 to 177 °C. Regarding `CC(C)(Oc1ccc(OCc2cccc3cn(-c4ccc(C(F)(F)F)cc4)nc23)cc1)C(=O)O` [Example 39, 2-Methyl-2-{4-[2-(4-trifluoromethylphenyl)-2H-indazol-7-ylmethoxy]phenoxy}propionic Acid], the melting point was in the range of 178 to 180 °C. The compound `CC(C)(Oc1ccc(SCCc2cccc3cn(-c4ccc(C(F)(F)F)cc4)nc23)cc1)C(=O)O` [Example 50, 2-Methyl-2-(4-{2-[2-(4-trifluoromethylphenyl)-2H-indazol-7-yl]ethylsulfanyl}phenoxy)propionic Acid] gave a melting point of 112 to 114 °C. As to `Cc1cc(SC(C)(C)c2cccc3cn(-c4ccc(C(F)(F)F)cc4)nc23)ccc1OCC(=O)O` [Example 14, 2-Methyl-4-{1-methyl-1-[2-(4-trifluoromethylphenyl)-2H-indazol-7-yl]ethylsulfanyl}phenoxyacetic Acid], the melting point lay in the range of 118 to 120 °C. With `CCc1cc(OC(C)c2cccc3cn(-c4ccc(C(F)(F)F)cc4)nc23)ccc1CCC(=O)O` (racemic) [Example 13], the melting point lay within 61 to 63 °C. Then `Cc1cc(SC(C)c2ccc3nn(-c4ccc(C(F)(F)F)cc4)cc3c2)ccc1OC(C)(C)C(=O)O` (racemic) [Example 69, (+/−)-2-Methyl-2-(2-methyl-4-{1-[2-(4-trifluoromethylphenyl)-2H-indazol-5-yl]ethylsulfanyl}phenoxy)propionic Acid], with 70 to 72 °C; and `CCc1cc(SCc2cccc3cn(-c4ccc(C(F)(F)F)cc4)nc23)ccc1OCC(=O)O` [Example 3, 2-Ethyl-4-[2-(4-trifluoromethylphenyl)-2H-indazol-7-ylmethylsulfanyl]phenoxyacetic Acid], with 159 to 161 °C; and `CC(C)(Oc1ccc(SCc2cccc3c2cnn3-c2ccc(C(F)(F)F)cc2)cc1)C(=O)O` [Example 79, 2-Methyl-2-{4-[1-(4-trifluoromethylphenyl)-1H-indazol-4-ylmethylsulfanyl]phenoxy}propionic Acid], with 158 to 160 °C.

For the compound `CC(Oc1ccc(SC(C)(C)C(=O)O)cc1)c1cccc2cn(-c3ccc(C(F)(F)F)cc3)nc12` (racemic) [Example 43, (+/−)-2-Methyl-2-(4-{1-[2-(4-trifluoromethylphenyl)-2H-indazol-7-yl]ethoxy}phenylsulfanyl)propionic Acid], the melting point lay in the range of 158 to 160 °C. As for `CC(Oc1ccc(SC(C)(C)C(=O)O)cc1)c1ccc2nn(-c3ccc(C(F)(F)F)cc3)cc2c1` (racemic) [Example 67, (+/−)-2-Methyl-2-(4-{1-[2-(4-trifluoromethylphenyl)-2H-indazol-5-yl]ethoxy}phenylsulfanyl)propionic Acid], the melting point was 153 to 155 °C. In turn, `CCc1cc(OCc2cccc3cn(-c4ccc(C(F)(F)F)cc4)nc23)ccc1CCC(=O)O` [Example 7, 3-{2-Ethyl-4-[2-(4-trifluoromethylphenyl)-2H-indazol-7-ylmethoxy]phenol}propionic Acid] registered a melting point of 157 to 159 °C. As for `CC(Oc1ccc(OC(C)(C)C(=O)O)cc1)c1cccc2cn(-c3ccc(C(F)(F)F)cc3)nc12` (racemic) [Example 44, (+/−)-2-Methyl-2-(4-{1-[2-(4-trifluoromethylphenyl)-2H-indazol-7-yl]ethoxy}phenoxy)propionic Acid], the melting point lay in the range of 130 to 132 °C. `Cc1cc(SCc2cccc3c2cnn3-c2ccc(C(F)(F)F)cc2)ccc1OCC(=O)O` [Example 30, 2-Methyl-4-[1-(4-trifluoromethylphenyl)-1H-indazol-4-ylmethylsulfanyl]phenoxyacetic Acid] had a melting point of 132 to 134 °C. Regarding `Cc1cc(OCc2cccc3cn(-c4ccc(C(F)(F)F)cc4)nc23)ccc1CCC(=O)O` [Example 6, 3-{2-Methyl-4-[2-(4-trifluoromethylphenyl)-2H-indazol-7-ylmethoxy]phenyl}propionic Acid], the melting point was 133 to 135 °C.

For `CC(C)(Sc1ccc(OCc2cccc3c2cnn3-c2ccc(C(F)(F)F)cc2)cc1)C(=O)O` [Example 80, 2-Methyl-2-{4-[1-(4-trifluoromethylphenyl)-1H-indazol-4-ylmethoxy]phenylsulfanyl}propionic Acid], the melting point was 168 to 170 °C.
